The results in this text go back to patent publication US10851098B2, “Azole amides and amines as alpha v integrin inhibitors” (BRISTOL-MYERS SQUIBB COMPANY, priority 2016, dated 2020).

Structures are written as SMILES.

The target in this experiment is T1, human αVβ6 (Homo sapiens, UniProt P06756+P18564).
T1 construct: purchased R & D systems 3817-AV
T1 sequence (P06756 31-992 limits assumed): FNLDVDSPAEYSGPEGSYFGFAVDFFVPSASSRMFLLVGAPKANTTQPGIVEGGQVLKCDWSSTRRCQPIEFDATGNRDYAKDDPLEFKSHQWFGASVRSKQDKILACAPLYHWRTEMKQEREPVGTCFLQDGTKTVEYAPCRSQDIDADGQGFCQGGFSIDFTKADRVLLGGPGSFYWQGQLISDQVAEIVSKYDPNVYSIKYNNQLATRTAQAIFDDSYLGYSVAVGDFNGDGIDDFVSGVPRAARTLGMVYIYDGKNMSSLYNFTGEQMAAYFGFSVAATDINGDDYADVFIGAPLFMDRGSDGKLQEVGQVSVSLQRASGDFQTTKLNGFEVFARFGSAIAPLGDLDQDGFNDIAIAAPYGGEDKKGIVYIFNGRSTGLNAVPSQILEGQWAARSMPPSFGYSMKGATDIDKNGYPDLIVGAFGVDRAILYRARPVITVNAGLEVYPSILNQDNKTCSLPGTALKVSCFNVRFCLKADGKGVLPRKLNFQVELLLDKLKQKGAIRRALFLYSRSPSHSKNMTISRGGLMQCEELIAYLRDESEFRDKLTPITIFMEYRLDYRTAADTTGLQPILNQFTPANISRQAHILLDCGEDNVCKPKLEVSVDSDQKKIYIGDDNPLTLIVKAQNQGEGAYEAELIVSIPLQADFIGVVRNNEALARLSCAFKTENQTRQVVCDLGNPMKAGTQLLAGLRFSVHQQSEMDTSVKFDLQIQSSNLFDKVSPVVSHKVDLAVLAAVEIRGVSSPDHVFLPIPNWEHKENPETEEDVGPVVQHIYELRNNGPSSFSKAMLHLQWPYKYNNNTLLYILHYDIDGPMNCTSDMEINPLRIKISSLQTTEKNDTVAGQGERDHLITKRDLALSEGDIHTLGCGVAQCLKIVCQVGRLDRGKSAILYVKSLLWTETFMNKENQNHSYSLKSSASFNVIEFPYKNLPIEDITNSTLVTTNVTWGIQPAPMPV
T1 sequence (P18564 22-707 limits assumed): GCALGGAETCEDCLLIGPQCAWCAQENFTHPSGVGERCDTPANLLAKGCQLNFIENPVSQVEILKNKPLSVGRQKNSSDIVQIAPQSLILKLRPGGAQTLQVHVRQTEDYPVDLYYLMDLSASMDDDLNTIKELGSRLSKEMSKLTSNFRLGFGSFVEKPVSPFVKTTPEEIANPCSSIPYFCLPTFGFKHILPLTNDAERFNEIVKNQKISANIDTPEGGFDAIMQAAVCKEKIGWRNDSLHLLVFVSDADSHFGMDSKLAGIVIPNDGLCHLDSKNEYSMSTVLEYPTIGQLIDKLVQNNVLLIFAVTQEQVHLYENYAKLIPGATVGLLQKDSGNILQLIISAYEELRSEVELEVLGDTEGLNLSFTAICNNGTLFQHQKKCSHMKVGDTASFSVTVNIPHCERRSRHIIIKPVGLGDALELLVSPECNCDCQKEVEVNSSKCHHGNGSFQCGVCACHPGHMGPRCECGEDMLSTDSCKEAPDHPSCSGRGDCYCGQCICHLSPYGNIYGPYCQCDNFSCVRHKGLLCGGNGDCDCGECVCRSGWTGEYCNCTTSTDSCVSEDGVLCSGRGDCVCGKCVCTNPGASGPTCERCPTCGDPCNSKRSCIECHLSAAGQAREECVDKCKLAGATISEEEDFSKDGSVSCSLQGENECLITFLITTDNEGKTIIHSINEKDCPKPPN
As to the kind of experiment: human αVβ6 HTRF binding assay. The protocol:
All binding assays used the HTRF (homogeneous time resolved fluorescence) technology from Cisbio International, therefore all assays are described as HTRF binding assays. The assay results for the Examples are listed above together with the characterization data. The HTRF binding assays are established for the following integrins: human αVβ6, human αVβ1, human αVβ3, human αVβ5, and human αVβ8. All assays used the following assay buffer: 20 mM Tris, pH 7.4, 1 mM MgCl2, 1 mM MnCl2, 0.01% Tween 20, and 0.01% BSA. Alternatively, a SPA-based assay was used for evaluation of receptor binding.
[…]
For orientation: Time-resolved FRET reads energy transfer from a long-lived donor to a nearby acceptor.
For the molecule `COc1ccc([C@H](CC(=O)O)NC(=O)c2cn(CCc3ccc4c(n3)NCCC4)nc2COC(C)(C)C)cc1F` [Example 1, (S)-3-(3-(tert-Butoxymethyl)-1-(2-(5,6,7,8-tetrahydro-1,8-naphthyridin-2-yl)ethyl)-1H-pyrazole-4-carboxamido)-3-(3-fluoro-4-methoxyphenyl)propanoic acid], the IC50 (as a rule, the concentration that inhibits the measured activity by half) was 771 nM.
Molecule `COc1ccc([C@H](CC(=O)O)NC(=O)c2cn(CCc3ccc4c(n3)NCCC4)nc2CO)cc1F` [Example 2, (S)-3-(3-Fluoro-4-methoxyphenyl)-3-(3-(hydroxymethyl)-1-(2-(5,6,7,8-tetrahydro-1,8-naphthyridin-2-yl)ethyl)-1H-pyrazole-4-carboxamido)propanoic acid] displayed an IC50 of 349 nM.
Turning to `CC(C)(C)OCc1nn(CCc2ccc3c(n2)NCCC3)cc1C(=O)NC(CC(=O)O)c1cc(Cl)cc(Cl)c1` (stereo not shown) [Example 3], the IC50 is 312 nM.
The same measure for `O=C(O)CC(NC(=O)c1cn(CCc2ccc3c(n2)NCCC3)nc1CO)c1cc(Cl)cc(Cl)c1` (stereo not shown) [Example 4, 3-(3,5-Dichlorophenyl)-3-(3-(hydroxymethyl)-1-(2-(5,6,7,8-tetrahydro-1,8-naphthyridin-2-yl)ethyl)-1H-pyrazole-4-carboxamido)propanoic acid]: 141 nM; for `CC(C)(C)OCc1nn(CCCc2ccc3c(n2)NCCC3)cc1C(=O)NC(CC(=O)O)c1cc(Cl)cc(Cl)c1` (stereo not shown) [Example 5, 3-(3-(tert-Butoxymethyl)-1-(3-(5,6,7,8-tetrahydro-1,8-naphthyridin-2-yl)propyl)-1H-pyrazole-4-carboxamido)-3-(3,5-dichlorophenyl)propanoic acid]: 159 nM; for `O=C(O)CC(NC(=O)c1cn(CCCc2ccc3c(n2)NCCC3)nc1CO)c1cc(Cl)cc(Cl)c1` (stereo not shown) [Example 6, 3-(3,5-Dichlorophenyl)-3-(3-(hydroxymethyl)-1-(3-(5,6,7,8-tetrahydro-1,8-naphthyridin-2-yl)propyl)-1H-pyrazole-4-carboxamido)propanoic acid]: 178 nM.
The same measure for `O=C(O)C[C@H](NC(=O)c1cnn(CCCNc2ccccn2)c1)c1cc(Cl)cc(Cl)c1` [Example 7, (S)-3-(3,5-Dichlorophenyl)-3-(1-(3-(pyridin-2-ylamino)propyl)-1H-pyrazole-4-carboxamido)propanoic acid]: 63 nM; for `O=C(O)C[C@H](NC(=O)c1cnn(CCCNC2=NCCN2)c1)c1cc(Cl)cc(Cl)c1` [Example 8, (S)-3-(3,5-Dichlorophenyl)-3-(1-(3-((4,5-dihydro-1H-imidazol-2-yl)amino)propyl)-1H-pyrazole-4-carboxamido)propanoic acid]: 41 nM.
The figure for `O=C(O)CC(NC(=O)c1cnn(CCc2ccc3c(n2)NCCC3)c1CO)c1cccc(Cl)c1` (stereo not shown) [Example 9, 3-(3-Chlorophenyl)-3-(5-(hydroxymethyl)-1-(2-(5,6,7,8-tetrahydro-1,8-naphthyridin-2-yl)ethyl)-1H-pyrazole-4-carboxamido)propanoic acid] is 22 nM; for `N[C@@H](CNC(=O)c1cnn(CCc2ccc3c(n2)NCCC3)c1)C(=O)O` [Example 11, (S)-2-Amino-3-(1-(2-(5,6,7,8-tetrahydro-1,8-naphthyridin-2-yl)ethyl)-1H-pyrazole-4-carboxamido)propanoic acid] it is 121 nM; for `O=C(O)C[C@H](NC(=O)c1cnn(CCc2ccc3c(n2)NCCC3)n1)c1cc(Cl)cc(Cl)c1` [Example 13, (S)-3-(3,5-Dichlorophenyl)-3-(2-(2-(5,6,7,8-tetrahydro-1,8-naphthyridin-2-yl)ethyl)-2H-1,2,3-triazole-4-carboxamido)propanoic acid] it is 7.1 nM.
In the case of `Cc1nc2c(cc1Cn1ncc(C(=O)N[C@@H](CC(=O)O)c3cc(Cl)cc(Cl)c3)n1)CCCN2` [Example 14, (S)-3-(3,5-Dichlorophenyl)-3-(2-((2-methyl-5,6,7,8-tetrahydro-1,8-naphthyridin-3-yl)methyl)-2H-1,2,3-triazole-4-carboxamido)propanoic acid], the IC50 came to 2210 nM.
The figure for `Cc1cc(C)c(C(=O)N[C@@H](CNC(=O)c2cnn(CCc3ccc4c(n3)NCCC4)c2)C(=O)O)c(C)c1` [Example 15, (S)-3-(1-(2-(5,6,7,8-Tetrahydro-1,8-naphthyridin-2-yl)ethyl)-1H-pyrazole-4-carboxamido)-2-(2,4,6-trimethylbenzamido)propanoic acid] is 0.9 nM; for `O=C(O)C[C@H](NC(=O)c1cnn(CCc2ccc3c(n2)NCCC3)c1)c1cc(Cl)cc(Cl)c1` [Example 16, (S)-3-(3,5-Dichlorophenyl)-3-(1-(2-(5,6,7,8-tetrahydro-1,8-naphthyridin-2-yl)ethyl)-1H-pyrazole-4-carboxamido)propanoic acid] it is 4.2 nM.
The same measure for `CCN(C(=O)c1cnn(CCc2ccc3c(n2)NCCC3)c1)C(CC(=O)O)c1ccc(OC)nc1` (stereo not shown) [Example 17, 3-(N-Ethyl-1-(2-(5,6,7,8-tetrahydro-1,8-naphthyridin-2-yl)ethyl)-1H-pyrazole-4-carboxamido)-3-(6-methoxypyridin-3-yl)propanoic acid]: 363 nM.
The same measure for `COc1ccc([C@H](CC(=O)O)N(C)C(=O)c2cnn(CCc3ccc4c(n3)NCCC4)c2)cc1F` [Example 18]: 13 nM; for `COc1ccc(S(=O)(=O)N[C@@H](CNC(=O)c2cnn(CCc3ccc4c(n3)NCCC4)c2)C(=O)O)cc1` [Example 19, (S)-2-((4-Methoxyphenyl)sulfonamido)-3-(1-(2-(5,6,7,8-tetrahydro-1,8-naphthyridin-2-yl)ethyl)-1H-pyrazole-4-carboxamido)propanoic acid]: 1.3 nM; for `O=C(NC[C@@H](NC(=O)[C@@H]1CCCN1S(=O)(=O)c1ccccc1)C(=O)O)c1cnn(CCc2ccc3c(n2)NCCC3)c1` [Example 21]: 1.4 nM.
Molecule `CC(C)(C)c1cc(Br)cc([C@H](CC(=O)O)NC(=O)c2cnn(CCc3ccc4c(n3)NCCC4)c2)c1` [Example 22] had an IC50 of 1.9 nM.
The same measure for `Cc1ccc(Oc2cccc(C(CC(=O)O)NC(=O)c3cnn(CCc4ccc5c(n4)NCCC5)c3COC(C)(C)C)c2)cc1` (stereo not shown) [Example 23]: 2.3 nM; for `O=C(O)CC(NC(=O)c1cnn(CCc2ccc3c(n2)NCCC3)c1)c1ccc(Cl)c(C(F)(F)F)c1` (stereo not shown) [Example 24]: 3.1 nM; for `CN(C(=O)c1cnn(CCc2ccc3c(n2)NCCC3)c1)[C@@H](CC(=O)O)c1cc(Cl)cc(Cl)c1` [Example 25]: 3.1 nM.
The same measure for `CC(C)(C)c1cc(Br)cc([C@H](CC(=O)O)NC(=O)c2cnn(CCc3ccc4c(n3)NCCC4)c2CO)c1` [Example 26]: 5 nM; for `Cc1ccc(Oc2cccc(C(CC(=O)O)NC(=O)c3cnn(CCc4ccc5c(n4)NCCC5)c3CO)c2)cc1` (stereo not shown) [Example 27]: 5.1 nM.
The figure for `Cc1cc(C)c(S(=O)(=O)N[C@H](CNC(=O)c2cnn(CCCc3ccc4c(n3)NCCC4)c2)C(=O)O)c(C)c1` [Example 28] is 6.1 nM; for `O=C(O)C[C@H](NC(=O)c1cnn(CCc2ccc3c(n2)NCCC3)c1CO)c1cc(Cl)cc(Cl)c1` [Example 29] it is 6.4 nM; for `O=C(O)CC(NC(=O)c1cnn(CCc2ccc3c(n2)NCCC3)c1)c1cc(Cl)cc(Cl)c1` (stereo not shown) [Example 30] it is 7.3 nM.
`CN(C(=O)c1cnn(CCc2ccc3c(n2)NCCC3)c1)C(CC(=O)O)c1cc(Cl)cc(Cl)c1` (stereo not shown) [Example 32] came in with an IC50 of 7.6 nM.
